Measured values as given in US20080139620A1, “Pyrazole Derivatives For The Inhibition Of Cdk's And Gsk's” (ASTEX THERAPEUTICS LIMITED, priority 2005, published 2008).

Legend:
[1] = tested on: human tumour derived cell lines; experiment: Xenograft studies, human tumour derived cell lines implanted sub-cutaneously; format: in vivo, nude mice; settings: dosed orally
From the text: These biomarkers include suppression of phosphorylation of substrates of the cyclin dependent kinases e.g. retinoblastoma protein.

[2] = Determination of oral bioavailability; format: in vivo; settings: BALB/c, mouse, plasma, mice, 5 mg/kg PO vs 1 mg/kg IV
Method: The oral bioavailability of the compounds of formula (I) may be determined as follows.
The test compound is administered as a solution both I.V. and orally to balb/c mice at the following dose level and dose formulations; • 1 mg/kg IV formulated in 10% DMSO/90% (2-hydroxypropyl)-β-cyclodextrin (25% w/v); and • 5 mg/kg PO formulated in 10% DMSO/20% water/70% PEG200.
At various time points after dosing, blood samples are taken in heparinised tubes and the plasma fraction is collected for analysis. The analysis is undertaken by LC-MS/MS after protein precipitation and the samples are quantified by comparison with a standard calibration line constructed for the test compound. The area under the curve (AUC) is calculated from the plasma level vs time profile by standard methods. The oral bioavailability as a percentage is calculated from the following equation: […]

Activated CDK2/CyclinA = Activated CDK2/CyclinA (Homo sapiens, UniProt P24941); experiment: Activated CDK2/CyclinA kinase inhibitory activity assay; format: biochemical
Method: Compounds of the invention were tested for kinase inhibitory activity using the following protocol.
The reaction is allowed to proceed for 2 to 4 hours before being stopped with an excess of ortho-phosphoric acid (5 μl at 2%). γ^33P-ATP which remains unincorporated into the histone H1 is separated from phosphorylated histone H1 on a Millipore MAPH filter plate. The wells of the MAPH plate are wetted with 0.5% orthophosphoric acid, and then the results of the reaction are filtered with a Millipore vacuum filtration unit through the wells. Following filtration, the residue is washed twice with 200 μl of 0.5% orthophosphoric acid. Once the filters have dried, 20 μl of Microscint 20 scintillant is added, and then counted on a Packard Topcount for 30 seconds.

HCT-116 cell line = experiment: Anti-proliferative activity, Alamar Blue assay; format: cell-based, human; settings: for IC50: HCT-116 human colon carcinoma, 72 hours, read-out: HCT-116 cell proliferation IC50
Method: The anti-proliferative activities of compounds of the invention can be determined by measuring the ability of the compounds to inhibition of cell growth in a number of cell lines. […] The method is based on the ability of viable cells to reduce resazurin to its fluorescent product resorufin. For each proliferation assay cells are plated onto 96 well plates and allowed to recover for 16 hours prior to the addition of inhibitor compounds for a further 72 hours. […] In the case of the non-proliferating cell assay cells are maintained at confluence for 96 hour prior to the addition of inhibitor compounds for a further 72 hours. The number of viable cells is determined by Alamar Blue assay as before. Cell lines can be obtained from the ECACC (European Collection of cell Cultures).

GSK3-β = biological target: T1, GSK3-β (Homo sapiens, UniProt P49841); experiment: GSK3-B kinase inhibitory activity assay; format: biochemical; settings: read-out: GSK3β IC50
T1 construct: purchased Upstate Discovery
Method: The reaction is allowed to proceed for 3 hours (GSK3-β) before being stopped with an excess of ortho-phosphoric acid (5 μl at 2%). The filtration procedure is as for Activated CDK2/CyclinA assay above.

T1 sequence (P49841 whole entry): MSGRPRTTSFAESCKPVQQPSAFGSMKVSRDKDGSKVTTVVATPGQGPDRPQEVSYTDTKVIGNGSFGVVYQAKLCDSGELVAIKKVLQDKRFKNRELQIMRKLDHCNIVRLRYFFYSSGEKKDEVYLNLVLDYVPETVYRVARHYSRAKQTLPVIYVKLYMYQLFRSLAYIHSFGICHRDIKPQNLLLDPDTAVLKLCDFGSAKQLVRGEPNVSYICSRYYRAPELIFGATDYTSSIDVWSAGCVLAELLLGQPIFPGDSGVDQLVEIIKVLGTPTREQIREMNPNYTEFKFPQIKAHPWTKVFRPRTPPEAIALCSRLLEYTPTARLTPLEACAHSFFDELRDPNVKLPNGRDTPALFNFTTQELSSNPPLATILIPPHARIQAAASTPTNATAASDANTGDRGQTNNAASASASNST

| SMILES | tumour biomarkers (phosphorylation of CDK substrates e.g. retinoblastoma protein) ([1]; nude mice xenografts) | tumour growth in xenografts ([1]; nude mice, sub-cutaneous xenografts) | bioavailability [2] | in vitro kinase (CDK2) inhibitory activity compared to difluoro-analogue (Activated CDK2/CyclinA) | IC50 (HCT-116 cell line) | anti-proliferative potency on HCT-116 compared to difluoro-analogue (HCT-116 cell line; human colon cancer HCT-116 cell line) | IC50 (GSK3-β) | IC50 (Activated CDK2/CyclinA) | selectivity for CDK inhibition over GSK3β (Activated CDK2/CyclinA) |
| --- | --- | --- | --- | --- | --- | --- | --- | --- | --- |
| CS(=O)(=O)N1CCC(NC(=O)c2n[nH]cc2NC(=O)c2c(Cl)cccc2Cl)CC1 [Example 1, 4-(2,6-dichloro-benzoylamino)-1H-pyrazole-3-carboxylic acid (1-methanesulphonyl-piperidin-4-yl)-amide] | inhibition of the tumour biomarkers | inhibition of tumour growth | 40 to 50% | greater in vitro kinase (CDK2) inhibitory activity | 110 nM | 6-7 fold | – | – | – |
| CS(=O)(=O)N1CCC(NC(=O)c2n[nH]cc2NC(=O)c2c(F)cccc2F)CC1 [Example 131 of PCT/GB2004/003179] | – | – | – | – | 740 nM | – | 14 nM | 2.2 nM | ~6 fold |
